Measurements: US20240425491A1, “HETEROARYL COMPOUNDS USEFUL IN THE TREATMENT OF COGNITIVE DISORDERS” (University College Cardiff Consultants Limited, priority 2021, published 2024)

Tests used:
[1] = target: T1, human recombinant GABAAR containing α5β3γ2 subunits (benzodiazepine site) (Homo sapiens, UniProt P18507+P31644); assay: In vitro radioligand binding assay (α5-GABAAR Ki); settings: inhibition of [3H]Ro15-1788 binding, membranes of L(tk−) cells expressing human α5β3γ2; read-out: α5-GABAAR Ki
T1 construct: expressed in transfected cells; host or cells: mouse L(tk−) cells, dexamethasone-inducible vector pMSGneo
T1 sequence (P31644 32-462): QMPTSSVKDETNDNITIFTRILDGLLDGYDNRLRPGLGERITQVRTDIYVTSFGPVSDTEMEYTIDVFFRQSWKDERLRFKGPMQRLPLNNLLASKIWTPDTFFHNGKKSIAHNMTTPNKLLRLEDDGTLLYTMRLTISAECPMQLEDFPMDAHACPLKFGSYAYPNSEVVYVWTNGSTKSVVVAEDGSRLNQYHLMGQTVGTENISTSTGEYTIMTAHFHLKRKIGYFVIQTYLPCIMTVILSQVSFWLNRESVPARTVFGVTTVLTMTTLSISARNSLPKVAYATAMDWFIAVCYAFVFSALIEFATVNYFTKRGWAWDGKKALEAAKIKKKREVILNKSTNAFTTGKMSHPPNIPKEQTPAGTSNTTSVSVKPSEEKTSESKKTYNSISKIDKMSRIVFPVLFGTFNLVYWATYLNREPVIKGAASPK
T1 sequence (P28472 26-473 partner): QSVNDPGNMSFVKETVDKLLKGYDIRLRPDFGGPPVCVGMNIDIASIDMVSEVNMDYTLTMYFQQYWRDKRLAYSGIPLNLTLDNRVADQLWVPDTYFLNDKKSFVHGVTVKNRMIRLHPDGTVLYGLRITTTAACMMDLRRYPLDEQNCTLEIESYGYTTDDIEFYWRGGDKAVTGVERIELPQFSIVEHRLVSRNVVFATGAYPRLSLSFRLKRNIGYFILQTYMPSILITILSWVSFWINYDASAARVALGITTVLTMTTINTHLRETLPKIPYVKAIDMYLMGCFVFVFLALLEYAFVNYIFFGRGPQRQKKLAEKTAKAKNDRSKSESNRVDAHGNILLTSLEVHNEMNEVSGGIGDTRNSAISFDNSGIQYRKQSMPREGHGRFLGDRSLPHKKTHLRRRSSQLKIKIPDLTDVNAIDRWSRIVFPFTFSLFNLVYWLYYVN
T1 sequence (P18507 40-475): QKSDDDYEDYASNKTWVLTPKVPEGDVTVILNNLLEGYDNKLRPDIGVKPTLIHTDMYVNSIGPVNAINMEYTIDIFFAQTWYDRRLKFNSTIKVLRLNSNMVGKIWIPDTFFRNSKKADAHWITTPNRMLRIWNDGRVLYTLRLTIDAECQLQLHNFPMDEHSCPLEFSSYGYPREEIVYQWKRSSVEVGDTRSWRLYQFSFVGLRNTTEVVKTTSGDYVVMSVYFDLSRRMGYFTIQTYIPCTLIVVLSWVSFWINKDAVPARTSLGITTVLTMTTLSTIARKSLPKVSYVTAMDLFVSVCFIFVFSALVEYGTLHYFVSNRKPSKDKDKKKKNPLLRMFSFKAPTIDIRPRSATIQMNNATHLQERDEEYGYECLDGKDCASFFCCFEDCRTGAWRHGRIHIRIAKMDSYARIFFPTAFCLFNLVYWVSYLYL
Procedure, shortened: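 Displacement of 4 nM [^3H]flumazenil from the benzodiazepine site, read by filtration and scintillation, gave IC50, converted to Ki (Cheng-Prusoff, saturation-derived Kd). Receptor: human α5β3γ2 membranes from L(tk^−) cells, 50 μg protein/well; 1 h, 4° C; TP003 1 μM defined nonspecific binding.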

[2] = target: T2, human α5β3γ2 GABAARs in mouse L(tk−) cells (Homo sapiens, UniProt P18507+P31644); assay: In vitro electrophysiological recording assay (α5-GABAAR relative efficacy), QPatch; type: cell-based; settings: GABA EC10-20
T2 construct: expressed in transfected cells; host or cells: mouse L(tk−) cells, dexamethasone-inducible vector pMSGneo
T2 sequence (P31644 32-462): as the sequence (P31644 32-462) above
T2 sequence (P28472 26-473 partner): as the sequence (P28472 26-473 partner) above
T2 sequence (P18507 40-475): as the sequence (P18507 40-475) above
From the text: Mouse L(tk^−) cells stably expressing human α1β3γ2, α2β3γ2, α3β3γ2, α5β3γ2 GABAARs generated by transfection of the individual subunits in the dexamethasone-inducible expression vector pMSGneo in mouse L(tk^−) cells (Hadingham et al., 1993, Mol. Pharmacol. 43:970-975 and 1993, Mol. Pharmacol. 44:1211-1218) were used for binding and functional assays. For certain compounds, HEK293 cells stable expressing the human α1β3γ2L, α2β3γ2L, α3β3γ2L and α5β3γ2L GABAA receptors were used to evaluate their functional effects in a SyncroPatch electrophysiology assay.
For QPatch electrophysiology testing, 1 μM dexamethasone was added to the culture medium of L(tk^−) cells 24 hours before the recordings were performed. Cells were typically used for electrophysiology experiments 72-96 hours after splitting.
The efficacy of modulators was evaluated using either the automated patch-clamp platform QPatch16 (Sophion, Copenhagen, Denmark) or the SyncroPatch 384i (Nanion Technologies, Germany). Cells were harvested from flasks by enzymatic dissociation and re-suspended in serum-free medium.
For QPatch recordings, all experiments were carried out at room temperature (20-22° C.) using a standard whole cell procedure and physiological solutions. Gigaseals were formed upon execution of a combined suction/voltage protocol with subsequent increased suction leading to the whole-cell configuration. The currents recorded were acquired at 1 KHz and filtered at 0.3 KHz using a Bessel filter. Whole-cell currents were measured at a holding potential of −65 mV.
For QPatch recordings, the extracellular solution contained of (in mM): 145 NaCl, 4 KCl, 1 MgCl2, 2CaCl2, 10 HEPES, 10 D-glucose (pH 7.4), and the intracellular solution consisted of (in mM): 96 KCl, 28 CsCl, 25 KOH, 4.3 CaCl2), 1.4 MgCl2, 10 EGTA, HEPES, 3 MgATP (pH 7.2). The osmolarities of the extracellular and intracellular solutions were 305 and 295 mOsm respectively.
The effects of modulators were evaluated in the presence of a submaximal GABA concentration, giving typically 10-20% activation (GABA EC10-20) of the response elicited by a saturating GABA concentration. For QPatch recordings, to check and ensure baseline current stability before compound addition, five consecutive applications of GABA EC10-20 alone (each application with a 2 s duration, separated by minimum 1 min wash off periods) were performed before compound addition. The test compound was applied using the pipetting system of the QPatch system 1 min at least prior to co-application with GABA EC10-20. For SyncroPatch recordings, GABA EC20 alone was applied three times (1 s long applications, with wash steps in-between) before compound addition. This was followed by a 1-2 min pre-incubation with the test compound and then re-application of GABA EC10-20 in the presence of the compound. Finally, following a further wash step, a saturating concentration of GABA was applied, allowing the accurate evaluation for each cell of the percentage baseline activation elicited by the submaximal GABA applied.
The compounds were first dissolved in DMSO as a 10 mM stock and then further diluted to the testing concentrations so that the final DMSO concentration in the extracellular recording solution was kept constant at 0.1% for the QPatch recordings, or 0.2% for the SyncroPatch recordings.
The % efficacy of modulators was determined from the GABA elicited currents recorded in the presence and absence of the test compound, using the formula:
[((compound peak current−leak)−(GABA peak current−leak))/(GABA peak current−leak)]*100,
where ‘leak’ is the leak baseline current at −65 mV, ‘compound peak current’ is the current elicited by co-application of compound and GABA, and ‘GABA peak current’ is the current elicited by GABA alone during the 5th GABA application. The results were presented as ‘relative efficacy’ for each compound generally at a concentration equal or higher than 100 times their determined Ki. […]

Compound | Ki [1] | α5-GABAAR Relative Efficacy (to DMCM), Qpatch ([2]; Conc 1 μM) | α5-GABAAR Relative Efficacy (to DMCM), Qpatch ([2]; Conc 0.3 μM) | α5-GABAAR Relative Efficacy (to DMCM), Qpatch ([2]; Conc 3 μM)
COc1nc(-c2cn[nH]c2)ccc1NC(=O)c1c(-c2ccccc2)noc1C [Example 26, N-[2-Methoxy-6-(1H-pyrazol-4-yl)-3-pyridyl]-5-methyl-3-phenyl-isoxazole-4-carboxamide] | 8 nM | −0.68 | – | –
COc1nc(-c2ccc(CO)nc2)ccc1NC(=O)c1c(-c2ccccc2)noc1C [Example 27, N-[6-[6-(Hydroxymethyl)-3-pyridyl]-2-methoxy-3-pyridyl]-5-methyl-3-phenyl-isoxazole-4-carboxamide] | 2.3 nM | – | −0.83 | –
COc1nc(-c2ccc(=O)n(C)c2)ccc1NC(=O)c1c(-c2ccccc2)noc1C [Example 28, N-[2-Methoxy-6-(1-methyl-6-oxo-3-pyridyl)-3-pyridyl]-5-methyl-3-phenyl-isoxazole-4-carboxamide] | 5.2 nM | −0.61 | – | –
COc1cc(-c2cccc3nccn23)cnc1NC(=O)c1c(-c2ccccc2)noc1C [Example 29, N-(5-Imidazo[1,2-a]pyridin-5-yl-3-methoxy-2-pyridyl)-5-methyl-3-phenyl-isoxazole-4-carboxamide] | 1.5 nM | – | −0.53 | –
COc1nc(-c2cccc3nccn23)ccc1NC(=O)c1c(-c2ccccc2)noc1C [Example 30, N-(6-Imidazo[1,2-a]pyridin-5-yl-2-methoxy-3-pyridyl)-5-methyl-3-phenyl-isoxazole-4-carboxamide] | 5.1 nM | −0.42 | – | –
COc1nc(-c2ccc3[nH]nc(N)c3c2)ccc1NC(=O)c1c(-c2ccccc2)noc1C [Example 33, N-[6-(3-Amino-1H-indazol-5-yl)-2-methoxy-3-pyridyl]-5-methyl-3-phenyl-isoxazole-4-carboxamide] | 15.8 nM | – | – | −0.50
COc1nc(-c2cccnc2)ccc1NC(=O)c1c(-c2ccccc2)noc1C [Example 37, N-(6-Methoxy-[2,3′-bipyridin]-5-yl)-5-methyl-3-phenylisoxazole-4-carboxamide] | 2.8 nM | – | −0.56 | –
COc1nc(-c2cncc(N)n2)ccc1NC(=O)c1c(-c2ccccc2)noc1C [Example 40, N-[6-(6-Aminopyrazin-2-yl)-2-methoxy-3-pyridyl]-5-methyl-3-phenyl-isoxazole-4-carboxamide] | 6.9 nM | −0.57 | – | –
COc1ncc(-c2ccc(NC(=O)c3c(-c4ccccc4)noc3C)c(OC)n2)cn1 [Example 41, N-(2-Methoxy-6-(2-methoxypyrimidin-5-yl)pyridin-3-yl)-5-methyl-3-phenyl-isoxazole-4-carboxamide] | 1.8 nM | – | −0.87 | –
COc1nc(-c2ccncc2)ccc1NC(=O)c1c(-c2ccccc2)noc1C [Example 42, N-(6-Methoxy-[2,4′-bipyridin]-5-yl)-5-methyl-3-phenylisoxazole-4-carboxamide] | 2.8 nM | – | −0.60 | –
COc1nc(-n2ccnc2)cnc1NC(=O)c1c(-c2ccccc2)noc1C [Example 44, N-(5-Imidazol-1-yl-3-methoxy-pyrazin-2-yl)-5-methyl-3-phenyl-isoxazole-4-carboxamide] | 3.6 nM | −0.69 | – | –
COc1nc(-c2cnc(N(C)C)nc2)ccc1NC(=O)c1c(-c2ccccc2)noc1C [Example 45, N-(6-(2-(Dimethylamino)pyrimidin-5-yl)-2-methoxypyridin-3-yl)-5-methyl-3-phenylisoxazole-4-carboxamide] | 1.2 nM | – | −0.65 | –
COc1nc(-n2cncn2)ccc1NC(=O)c1c(-c2ccccc2)noc1C [Example 46, N-[2-Methoxy-6-(1,2,4-triazol-1-yl)-3-pyridyl]-5-methyl-3-phenyl-isoxazole-4-carboxamide] | 4.4 nM | −0.69 | – | –
CCOc1ncc(-c2ccc(NC(=O)c3c(-c4ccccc4)noc3C)c(OC)n2)cn1 [Example 48, N-[6-(2-Ethoxypyrimidin-5-yl)-2-methoxy-3-pyridyl]-5-methyl-3-phenyl-isoxazole-4-carboxamide] | 2.7 nM | – | −0.90 | –
COc1nc(-c2ccc3[nH]nnc3c2)ccc1NC(=O)c1c(-c2ccccc2)noc1C [Example 49, N-[6-(1H-Benzotriazol-5-yl)-2-methoxy-3-pyridyl]-5-methyl-3-phenyl-isoxazole-4-carboxamide] | 7.9 nM | −0.83 | – | –
COc1nc(-c2cccc3nc(N)nn23)ccc1NC(=O)c1c(-c2ccccc2)noc1C [Example 50, N-[6-(2-Amino-[1,2,4]triazolo[1,5-a]pyridin-5-yl)-2-methoxy-3-pyridyl]-5-methyl-3-phenyl-isoxazole-4-carboxamide] | 9.6 nM | −0.74 | – | –
COc1nc(-c2ncnn2C)ccc1NC(=O)c1c(-c2ccccc2)noc1C [Example 52, N-[2-Methoxy-6-(2-methyl-1,2,4-triazol-3-yl)-3-pyridyl]-5-methyl-3-phenyl-isoxazole-4-carboxamide] | 9.8 nM | −0.49 | – | –
COc1nc(-c2nccnc2N)ccc1NC(=O)c1c(-c2ccccc2)noc1C [Example 54, N-[6-(3-Aminopyrazin-2-yl)-2-methoxy-3-pyridyl]-5-methyl-3-phenyl-isoxazole-4-carboxamide] | 7.4 nM | −0.55 | – | –
COc1nc(-c2cncnc2)cnc1NC(=O)c1c(-c2ccccc2)noc1C [Example 56, N-(3-Methoxy-5-(pyrimidin-5-yl)pyrazin-2-yl)-5-methyl-3-phenylisoxazole-4-carboxamide] | 2.3 nM | – | −0.64 | –
COc1nc(-c2ccc3nc(N)nn3c2)ccc1NC(=O)c1c(-c2ccccc2)noc1C [Example 57, N-[6-(2-Amino-[1,2,4]triazolo[1,5-a]pyridin-6-yl)-2-methoxy-3-pyridyl]-5-methyl-3-phenyl-isoxazole-4-carboxamide] | 1.5 nM | – | −0.57 | –
COc1nc(-c2nnco2)ccc1NC(=O)c1c(-c2ccccc2)noc1C [Example 58, N-[2-Methoxy-6-(1,3,4-oxadiazol-2-yl)-3-pyridyl]-5-methyl-3-phenyl-isoxazole-4-carboxamide] | 18.1 nM | – | – | −0.79
COc1nc(-c2cnc(OCC(F)(F)F)nc2)ccc1NC(=O)c1c(-c2ccccc2)noc1C [Example 59, N-[2-Methoxy-6-[2-(2,2,2-trifluoroethoxy)pyrimidin-5-yl]-3-pyridyl]-5-methyl-3-phenyl-isoxazole-4-carboxamide] | 10.4 nM | – | – | −0.75
COc1nc(-c2cnc(C(=O)O)nc2)ccc1NC(=O)c1c(-c2ccccc2)noc1C [Example 60, 5-[6-Methoxy-5-[(5-methyl-3-phenyl-isoxazole-4-carbonyl)amino]-2-pyridyl]pyrimidine-2-carboxylic acid] | 1.3 nM | – | −0.92 | –
